Experimental data as given in publication PMC7757987, “Antitumor Activity and Mechanism Study of Riluzole and Its Derivatives” (Iranian Journal of Pharmaceutical Research : IJPR, 2020).
Where two headings read alike, the source gives them in different places.

Tests used:
[1] = tested on: HeLa, HepG2, SP2/0 and MCF-7; assay: CCK-8 anti-proliferative assay, all examined cancer cell lines; assay type: cell-based; details: HepG2, SP2/0, MCF-7, CCK-8, 48 h
Protocol: (§1) MCF-7 (breast cancer cell line) was cultured in RPMI-1640 medium. HeLa (human cervical cancer cell line), HepG2 (human liver cancer cell line), SP2/0 (mouse myeloma cell line), and LO2 (human normal liver cell line) were cultured in DMEM medium. Each medium was supplemented with 10% fetal bovine serum, 1% L-glutamine and 1% penicillin/streptomycin solution. The cell lines were kept in the incubator at 37 ℃ in a humidified atmosphere (90% RH) containing 5% CO2. […] The cell lines SP2/0 and MCF-7 were obtained from Laboratory Center of Shaanxi Province People’s Hospital.
(§2) 2×10^3 cells per well were planted into 96-well plates in 100 μL growth medium and incubated for 24 h. Then, the cells were exposed to each compound in growth medium (DMSO< 0.5%) at five different concentrations (1.23, 3.70, 11.11, 33.33, and 100 μmol/L) for 48 h. The mixture was incubated at 37 ℃ under a humidified 5% CO2 atmosphere. After incubation, 10 μL CCK-8 solution was added to each well and the cells were further incubated for 2 h at 37 ℃ according to the CCK-8 Technical Manual. Then, the OD value for each well was read at wavelength 450 nm to determine the cell viability on a microplate reader (Synergy HT, USA). […] The independent experiment was repeated at least three times. The percentage of growth inhibition was calculated as follows according to reference ([18]),
(§3) % of growth inhibition = [1 - absorbance of treated cells/absorbance of untreated cells] × 100%

[2] = tested on: HepG2 (human liver cancer cell line); assay: CCK-8 anti-proliferative assay, HepG2; assay type: cell-based; details: for IC50: Homo sapiens, HepG2, CCK-8, 48 h, read-out: Cytotoxicity (IC50) HepG2; for Selectivity index (SI) HepG2: IC50 LO2 / IC50 HepG2
Protocol: as §1, with “HeLa” for “MCF-7 (breast cancer cell line) was cultured in RPMI-1640 medium. HeLa”
as §2, with “Then, the cells were exposed to each compound in growth medium (DMSO< 0.5%) at five different concentrations (1.23, 3.70, 11.11, 33.33, and 100 μmol/L) for 48 h.” left out
as §3

[3] = tested on: MCF-7 (human breast cancer cell line); assay: CCK-8 anti-proliferative assay, MCF-7; assay type: cell-based; details: for IC50: Homo sapiens, MCF7, CCK-8, 48 h; for Selectivity index (SI) MCF-7: IC50 LO2 / IC50 MCF-7
Protocol: as §1, with “HeLa” for “MCF-7 (breast cancer cell line) was cultured in RPMI-1640 medium. HeLa”
as §2, with “Then, the cells were exposed to each compound in growth medium (DMSO< 0.5%) at five different concentrations (1.23, 3.70, 11.11, 33.33, and 100 μmol/L) for 48 h.” left out
as §3

[4] = CCK-8 cytotoxicity assay, normal LO2 cells; assay type: cell-based, human; details: human, LO2 normal liver cells; CCK-8, 48 h, normal liver cells; read-out: Cytotoxicity (IC50) L02
Protocol: as §1, with “HeLa” for “MCF-7 (breast cancer cell line) was cultured in RPMI-1640 medium. HeLa”
as §2, with “Then, the cells were exposed to each compound in growth medium (DMSO< 0.5%) at five different concentrations (1.23, 3.70, 11.11, 33.33, and 100 μmol/L) for 48 h.” left out
as §3

[5] = tested on: HeLa (human cervical cancer cell line); assay: CCK-8 anti-proliferative assay, HeLa; assay type: cell-based; details: for IC50: Homo sapiens, HeLa, CCK-8, 48 h, read-out: Cytotoxicity (IC50) HeLa; for Selectivity index (SI) HeLa: IC50 LO2 / IC50 HeLa
Protocol: as §1, with “HeLa” for “MCF-7 (breast cancer cell line) was cultured in RPMI-1640 medium. HeLa”
as §2, with “Then, the cells were exposed to each compound in growth medium (DMSO< 0.5%) at five different concentrations (1.23, 3.70, 11.11, 33.33, and 100 μmol/L) for 48 h.” left out
as §3

[6] = tested on: SP2/0 (mouse myeloma cell line); assay: CCK-8 anti-proliferative assay, SP2/0; assay type: cell-based; details: for IC50: Mus musculus, CCK-8, 48 h, read-out: Cytotoxicity (IC50) SP2/0; for Selectivity index (SI) SP2/0: IC50 LO2 / IC50 SP2/0
Protocol: as §1, with “HeLa” for “MCF-7 (breast cancer cell line) was cultured in RPMI-1640 medium. HeLa”
as §2, with “Then, the cells were exposed to each compound in growth medium (DMSO< 0.5%) at five different concentrations (1.23, 3.70, 11.11, 33.33, and 100 μmol/L) for 48 h.” left out
as §3

[7] = read-out: Cytotoxicity (IC50) MCF-7

Row | Compound | IC50 [1] | melting point | IC50 ([3]; read-out: IC50 in MCF-7 cells) | IC50 [2] | IC50 [3, 7] | IC50 at 48 h [4] | IC50 [5] | IC50 [6] | Selectivity index (SI) HepG2 [2] | Selectivity index (SI) MCF-7 [3] | Selectivity index (SI) HeLa [5] | Selectivity index (SI) SP2/0 [6]
1 | CCCCNc1nc2ccc(OC(F)(F)F)cc2s1 [Compound 4c] | – | 76 to 78 °C | – | > 100 µM | 21.9 ± 0.97 µM | 25.6 ± 3.12 µM | 16.7 ± 0.94 µM | 59 ± 3.32 µM | – | 1.17 | 1.53 | 0.43
2 | CCN(CC)c1nc2ccc(OC(F)(F)F)cc2s1 [Compound 4d, (N-diaethylamine)-6-trifluoromethoxy-benzothiazole] | – | 38 to 39 °C | – | > 100 µM | 46.6 ± 2.77 µM | > 100 µM | > 100 µM | 48.5 ± 3.41 µM | – | – | – | –
3 | FC(F)(F)Oc1ccc2nc(N3CCCC3)sc2c1 [Compound 4f, (N-pyrrolidine)-6-trifluoromethoxy-benzothiazole] | > 100 µM | 129 to 130 °C | – | > 100 µM | > 100 µM | 65.2 ± 3.53 µM | > 100 µM | > 100 µM | – | – | – | –
4 | CC1CCN(c2nc3ccc(OC(F)(F)F)cc3s2)CC1 [Compound 4i, 2-(N-4-methyl-1-piperidinyl)-6-trifluoromethoxy-benzothiazole] | – | 77 to 78 °C | 11.5 µM | > 100 µM | > 100 µM | > 100 µM | > 100 µM | 11.5 ± 0.85 µM | – | – | – | 9.68
5 | CNC(=O)c1cc(Oc2ccc(NC(=O)Nc3ccc(Cl)c(C(F)(F)F)c3)cc2)ccn1 [Sorafenib, reference compound] | – | – | – | 12 ± 2.12 µM | 7.66 ± 0.73 µM | 11.9 ± 0.32 µM | 5.16 ± 0.62 µM | 4.25 ± 0.75 µM | – | – | – | –

More lines, main results first:

Row | IC50 [1] | melting point | IC50 ([3]; read-out: IC50 in MCF-7 cells) | Compound | IC50 [2] | IC50 [3, 7] | IC50 at 48 h [4] | IC50 [5] | IC50 [6] | Selectivity index (SI) HepG2 [2] | Selectivity index (SI) MCF-7 [3] | Selectivity index (SI) HeLa [5] | Selectivity index (SI) SP2/0 [6]
6 | > 100 µM | 38 to 39 °C | – | FC(F)(F)Oc1ccc2nc(Cl)sc2c1 [Compound 3, 2-chloro-6-trifluoromethoxy-benzothiazole] | > 100 µM | > 100 µM | 100 ± 6.07 µM | > 100 µM | > 100 µM | – | – | – | –
7 | – | 88 to 89 °C | – | CCCNc1nc2ccc(OC(F)(F)F)cc2s1 [Compound 4b] | 18 ± 0.88 µM | 12.9 ± 0.69 µM | 32.2 ± 3.03 µM | 30.1 ± 1.28 µM | 46.4 ± 3.62 µM | 1.79 | 2.50 | 1.07 | 0.69
8 | – | 96 to 97 °C | – | FC(F)(F)Oc1ccc2nc(NC3CCCCC3)sc2c1 [Compound 4e] | 20.2 ± 0.93 µM | 20.5 ± 1.09 µM | 33.8 ± 2.4 µM | 20.9 ± 0.98 µM | 17.7 ± 0.81 µM | 1.67 | 1.65 | 1.62 | 1.91
9 | – | 74 to 75 °C | – | FC(F)(F)Oc1ccc2nc(N3CCCCC3)sc2c1 [Compound 4g, 2-(N-piperidine)-6-trifluoromethoxy-benzothiazole] | > 100 µM | 25.8 ± 1.21 µM | > 100 µM | > 100 µM | 32.6 ± 1.44 µM | – | 5.20 | – | 4.12
10 | > 100 µM | 103 to 105 °C | – | FC(F)(F)Oc1ccc2nc(N3CCOCC3)sc2c1 [Compound 4h, (N-morpholine)-6-trifluoromethoxy-benzothiazole] | > 100 µM | > 100 µM | > 100 µM | > 100 µM | 98.7 ± 3.28 µM | – | – | – | –
